Test [1] relates to Receptor-type tyrosine-protein kinase FLT3 (Homo sapiens), P36888 [UNDEFINED MUTATION]. The following applies: dose 500.0 nM.
Description: Inhibition of FLT3 ITD mutant (unknown origin) at 500 nM relative to control
Test [2] deals with MV4-11. The test is described as follows: cells. The following applies: Homo sapiens.
Description: Antiproliferative activity against human MV4-11 cells assessed as reduction in cell viability
The target of test [3] is Receptor-type tyrosine-protein kinase FLT3 (Homo sapiens, UniProt P36888, ITD).
Description: Inhibition of FLT3 ITD mutant (unknown origin)
The subject of test [4] is MV4-11. The test is described as follows: Potency index, ratio of quizartinib IC50 to test compound IC50 for antiproliferative activity against human MV4-11 cells assessed as reduction in cell viability. The class given is functional.

Molecules are shown by their SMILES.

Receptor-type tyrosine-protein kinase FLT3, sequence (P36888 whole entry, looked up, stated change not applied): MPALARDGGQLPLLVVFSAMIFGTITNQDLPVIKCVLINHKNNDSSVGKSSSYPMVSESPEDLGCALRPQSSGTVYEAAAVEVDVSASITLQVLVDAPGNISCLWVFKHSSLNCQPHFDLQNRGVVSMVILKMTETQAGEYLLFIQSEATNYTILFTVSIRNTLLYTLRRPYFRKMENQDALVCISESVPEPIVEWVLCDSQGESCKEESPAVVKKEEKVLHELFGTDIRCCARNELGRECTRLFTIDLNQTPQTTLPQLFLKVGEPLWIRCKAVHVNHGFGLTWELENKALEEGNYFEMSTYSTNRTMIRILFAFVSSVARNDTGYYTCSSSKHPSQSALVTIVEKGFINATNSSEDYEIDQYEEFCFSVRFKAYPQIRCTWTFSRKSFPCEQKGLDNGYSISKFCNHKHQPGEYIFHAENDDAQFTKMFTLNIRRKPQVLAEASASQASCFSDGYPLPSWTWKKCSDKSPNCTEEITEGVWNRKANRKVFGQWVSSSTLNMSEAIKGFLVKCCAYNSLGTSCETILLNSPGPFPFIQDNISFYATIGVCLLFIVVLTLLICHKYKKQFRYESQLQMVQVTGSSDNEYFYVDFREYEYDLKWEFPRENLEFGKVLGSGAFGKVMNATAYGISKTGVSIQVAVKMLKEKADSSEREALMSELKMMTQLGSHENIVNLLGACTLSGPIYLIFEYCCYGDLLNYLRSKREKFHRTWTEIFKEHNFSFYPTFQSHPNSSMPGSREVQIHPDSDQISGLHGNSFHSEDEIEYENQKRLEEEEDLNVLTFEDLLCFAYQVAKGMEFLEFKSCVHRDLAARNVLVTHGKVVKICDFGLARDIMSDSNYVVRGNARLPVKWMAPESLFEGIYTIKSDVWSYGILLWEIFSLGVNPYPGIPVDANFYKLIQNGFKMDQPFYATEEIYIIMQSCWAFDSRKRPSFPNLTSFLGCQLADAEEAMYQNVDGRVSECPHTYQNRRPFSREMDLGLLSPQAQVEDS
Receptor-type tyrosine-protein kinase FLT3 (Homo sapiens), P36888 [UNDEFINED MUTATION], sequence (P36888 whole entry, looked up, change not shown): as the sequence (P36888 whole entry, looked up, stated change not applied) above

For `COc1ccc2nc(NC(=O)Cc3ccc(NC(=O)Nc4cc(C(C)(C)C)on4)cc3)sc2c1`, in test [1], the inhibition (usually the drop in the measured response relative to a control, in per cent) came to 2.5%.
Still for that read-out and setting: with `CC(C)(C)c1cc(NC(=O)Nc2ccc(C(=O)Nc3ccc(-c4cn5c(n4)sc4cc(OCCN6CCOCC6)ccc45)cc3)cc2)on1` the figure was 41.9%; with `Cc1cc(NC(=O)Nc2ccc(-c3cn4c(n3)sc3cc(OCCN5CCOCC5)ccc34)cc2)no1`, 79.9%.
`Cc1cc(NC(=O)Nc2ccc(C(=O)Nc3ccc(-c4cn5c(n4)sc4cc(OCCN6CCOCC6)ccc45)cc3)cc2)no1`: the inhibition in test [1] was 29%.
Turning to `Cc1cc(NC(=O)Nc2ccc(-c3cn4c(n3)sc3cc(OCCN5CCOCC5)ccc34)cc2)on1`, the IC50 (commonly the point on the concentration scale where inhibition reaches its midpoint) in test [2] came to 33.1 nM; in test [3] it was 157 nM. In test [1], the inhibition is 66.7%.
Take `CC(C)(C)c1cc(NC(=O)Nc2ccc(CC(=O)Nc3ccc(-c4cn5c(n4)sc4cc(OCCN6CCOCC6)ccc45)cc3)cc2)no1`: in test [1], the inhibition was found to be 36%.
As for `Cc1cc(NC(=O)Nc2ccc3c(c2)sc2nc(-c4ccc(OCCN5CCOCC5)cc4)cn23)no1`, the IC50 in test [2] is 39.9 nM; in test [3], 82.6 nM. For the same molecule, in test [1], the inhibition was 82.5%.
For the molecule `COc1ccc2nc(NC(=O)Cc3ccc(NC(=O)Nc4cc(C)no4)cc3)sc2c1`, in test [1], the inhibition was 4.5%.
As to `Cc1cc(NC(=O)Nc2ccc(CC(=O)Nc3ccc(-c4cn5c(n4)sc4cc(OCCN6CCOCC6)ccc45)cc3)cc2)on1`, in test [1], the inhibition came to 45.9%.
Consider `CC(C)(C)c1cc(NC(=O)Nc2ccc(-c3cn4c(n3)sc3cc(OCCN5CCOCC5)ccc34)cc2)on1`, for which, in test [4], the “Ratio IC50” value is on record as 4.75. Further, the figures for the IC50 in test [2] and in test [3] were 0.176 nM and 5.6 nM, respectively. Besides, the inhibition in test [1] worked out at 99.6%.
Regarding `COc1ccc2c(c1)sc1nc(-c3ccc(NC(=O)Nc4cc(C(C)(C)C)no4)cc3)cn12`, the half-maximal inhibitory concentration (IC50) in test [2] stood at 1.97 nM; in test [3], 20.5 nM. Further, in test [1], the inhibition was found to be 97.2%.
Regarding `CC(C)(C)c1cc(NC(=O)Nc2ccc3c(c2)sc2nc(-c4ccc(OCCN5CCOCC5)cc4)cn23)no1`, the results for the IC50 in test [2] and in test [3] were 0.782 nM and 8.25 nM, respectively. Also, the inhibition in test [1] stood at 98.8%.
The corresponding values for `Cc1cc(NC(=O)Nc2ccc3c(c2)sc2nc(-c4ccc(OCCN5CCOCC5)cc4)cn23)on1` are 88.7 nM, 109 nM and 76.9%.
As for `COc1ccc2nc(NC(=O)Cc3ccc(NC(=O)Nc4cc(C)on4)cc3)sc2c1`, the inhibition in test [1] is -2%.
`CC(C)(C)c1cc(NC(=O)Nc2ccc(C(=O)Nc3ccc(-c4cn5c(n4)sc4cc(OCCN6CCOCC6)ccc45)cc3)cc2)no1`: in test [1], the inhibition is 35%.
The same measure, in the same setting: as for `COc1ccc2nc(NC(=O)Cc3ccc(NC(=O)Nc4cc(C(C)(C)C)no4)cc3)sc2c1`, the figure is 6.4%.
On to `CC(C)(C)c1cc(NC(=O)Nc2ccc3c(c2)sc2nc(-c4ccc(OCCN5CCOCC5)cc4)cn23)on1`, for which the IC50 in test [2] came out at 0.614 nM; in test [3], 6.83 nM. Moreover, the inhibition in test [1] turned out to be 99.3%.
On to `CC(C)(C)c1cc(NC(=O)Nc2ccc(CC(=O)Nc3ccc(-c4cn5c(n4)sc4cc(OCCN6CCOCC6)ccc45)cc3)cc2)on1`, for which the inhibition in test [1] is 38.5%.
On the same count and under the same terms, with `Cc1cc(NC(=O)Nc2ccc(C(=O)Nc3ccc(-c4cn5c(n4)sc4cc(OCCN6CCOCC6)ccc45)cc3)cc2)on1` the figure was 28.1%; with `COc1ccc2c(c1)sc1nc(-c3ccc(NC(=O)Nc4cc(C)on4)cc3)cn12`, 67.3%.
Regarding `Cc1cc(NC(=O)Nc2ccc(CC(=O)Nc3ccc(-c4cn5c(n4)sc4cc(OCCN6CCOCC6)ccc45)cc3)cc2)no1`, the inhibition in test [1] was 35.8%.
Still for that read-out and setting: as for `COc1ccc2c(c1)sc1nc(-c3ccc(NC(=O)Nc4cc(C)no4)cc3)cn12`, the figure is 52.6%.

These data come from ChEMBL document CHEMBL4665799, “Synthesis and biological evaluation of diaryl urea derivatives as FLT3 inhibitors” (Bioorg Med Chem Lett, 2020).
